Data set [1] can be described thus: water solubility in aqueous buffer under physiological conditions. Type of data set: physicochemical. The conditions noted are these: prodrug versus parent compound of formula IV, same conditions.
For data set [2] the following is noted: cited from earlier work.

On to `COc1cc(Nc2ncc(F)c(Nc3ccc4c(n3)N(COP(=O)(O)O)C(=O)C(C)(C)O4)n2)cc(OC)c1OC` [compound of formula II], for which the “solubility relative to compound of formula IV (times greater)” value in data set [1] is “approximately 2000 times”. In addition, the solubility result in data set [2] (aqueous buffer under physiological conditions (same conditions as formula IV)) is recorded as “greater than 5 mg/mL”.
Consider `COc1cc(Nc2ncc(F)c(Nc3ccc4c(n3)NC(=O)C(C)(C)O4)n2)cc(OC)c1OC` [compound of formula IV], for which the water solubility in data set [2] (aqueous buffer under physiological conditions) was 1 to 2 µg/mL.
